Source: patent publication US20050026068A1, “Polycarbocyclic derivatives for modification of resist, optical and etch resistance properties” (priority 2001, published 2005)

Columns and labels:
[1] = Sublimation of additive from PMMA film on hotplate heating (absorption spectra); type: physicochemical
Method: The same procedure was repeated for heating at 110° C., 130° C. and 160° C. The spectra taken each time were compared and the possible sublimation of the additive after the different thermal treatment procedures was calculated.
The following explanations apply to all tables. […] SUBL=temperature of sublimation.

[2] = UV absorbance of PMMA films loaded with additive; type: physicochemical; conditions: additive 5% w/w of PMMA; value includes PMMA absorbance (higher by 0.07)
[3] = UV absorbance of PMMA films loaded with additive; type: physicochemical; conditions: additive 7.5% w/w of PMMA
Method: A quantity of a polyaromatic compound (i.e.compound (XI), Table 9), was added in part of this solution at a 7.5% w/w of the polymer concentration.
The solution was stirred at room temperature for a few hours and the polyaromatic compound was dissolved. Then, a small amount of the solution was used to spin coat a film on quartz substrate at 4000 rpm for 30 sec. The thickness of this film was measured by a profilometer and found 12250 Å. The absorption spectrum of the film was taken at vertical incidence.
The same procedure was repeated, using the initial PMMA solution this time. A new film was spun and its thickness was found 13000 Å. […]

[4] = Solubility of additive in the solvents used (PGMEA, MIBK)
Method: It is important that the selected additive is soluble in the solvents commonly used in the microlithography process. […] After film formation the amount of the additive sublimed during the baking cycles was tested. Evaluation of spectroscopic and etch resistance enhancement followed.
SOL=solubility at the solvents used (##=very bad, #=bad, *=good, **=very good). SUBL=temperature of sublimation.

Row | SMILES | UV 193 nm (absorbance) [3] | UV 248 nm (absorbance) [3] | SUBL (temperature of sublimation) ([1]; additive 7.5% w/w in PMMA film) [°C] | solubility (in words) [4] | SUBL (temperature of sublimation) ([1]; additive 5% w/w in PMMA film) [°C] | UV 193 nm (absorbance) [2]
1 | Nc1ccc2cc3ccccc3cc2c1 [2-aminoanthracene] |  |  |  |  | 110 | 0.51 /0.5 μm
2 | O=C(O)c1c2ccccc2cc2ccccc12 [9-anthracene carboxylic acid] |  |  |  |  | 110 | 0.46 /0.5 μm
3 | OCc1c2ccccc2cc2ccccc12 [9-anthracene methanol] |  |  |  |  | 110 | 0.43 /0.5 μm
4 | O=C(OCC(COC(=O)C12CC3CC(CC(C3)C1)C2)Cc1c2ccccc2cc2ccccc12)C12CC3CC(CC(C3)C1)C2 (stereo not drawn) [Compound XIII, Mixed anthryl ester] | 0.17 /0.5 μm | 0.45 /0.5 μm | 160 |  |  | 
5 | CC(=O)C1CCC2C3CC=C4CC(OC(=O)c5c6ccccc6cc6ccccc56)CCC4(C)C3CCC12C (stereo not drawn) [Compound XIV, 5-pregnen-3β-yl-(9-anthryl-methylate)-20-one] | 0.20 /0.5 μm | 0.52 /0.5 μm | 160 |  |  | 
6 | O=C(O)CCC(=O)OC(Cc1c2ccccc2cc2ccccc12)Cc1c2ccccc2cc2ccccc12 [II, 1,3-di-(9-anthryl2-propyl hydrogen succinate] | 0.33 /0.5 μm | 1.25 /0.5 μm | 160 | improved solubility |  | 
7 | c1ccc2c(CNCc3c4ccccc4cc4ccccc34)c3ccccc3cc2c1 [IV, N,N-Di-(9-anthrylmethyl)-amine] | 0.22 /0.5 μm | 0.31 /0.5 μm | 160 |  |  | 
8 | O=C(CCC(=O)OC(Cc1c2ccccc2cc2ccccc12)Cc1c2ccccc2cc2ccccc12)OCc1c2ccccc2cc2ccccc12 [IX, 1,3-Di-(9-anthryl)-2-propyl 9-anthrylmethyl Succinate] | 1.41 /0.5 μm | 1.74 /0.5 μm | 160 | decreased solubility |  | 
9 | OC(Cc1c2ccccc2cc2ccccc12)Cc1c2ccccc2cc2ccccc12 [I] | 0.16 /0.5 μm | 0.48 /0.5 μm | 160 | improved solubility |  | 
10 | O=C(OCCOc1c2ccccc2cc2ccccc12)OCCOc1c2ccccc2cc2ccccc12 [VI, Di-2-(9-anthryloxy)-ethyl carbonate] | 0.24 /0.5 μm | 1.04 /0.5 μm | 130 |  |  | 
11 | c1ccc2cc3ccccc3cc2c1 [anthracene] |  |  |  |  | 110 | 0.38 /0.5 μm

Further lines, with some results ahead:

Row | UV 193 nm (absorbance) [3] | UV 248 nm (absorbance) [3] | SUBL (temperature of sublimation) ([1]; additive 7.5% w/w in PMMA film) [°C] | solubility (in words) [4] | SMILES | SUBL (temperature of sublimation) ([1]; additive 5% w/w in PMMA film) [°C] | UV 193 nm (absorbance) [2]
12 |  |  |  | improved solubility | c1ccc2c(CNC3CCCCC3NCc3c4ccccc4cc4ccccc34)c3ccccc3cc2c1 (stereo not drawn) [VIII, trans-1,2-Di-(9-aminomethyl-anthryl)-cyclohexane] |  | 
13 | 0.35 /0.5 μm | 1.16 /0.5 μm | 160 | not satisfactory | O=C(OCc1c2ccccc2cc2ccccc12)c1c2ccccc2cc2ccccc12 [VII] |  | 
14 | 0.33 /0.5 μm | 0.75 /0.5 μm | 160 | decreased solubility | O=C(CCC(=O)OC(Cc1c2ccccc2cc2ccccc12)Cc1c2ccccc2cc2ccccc12)OCC(COC(=O)CCC(=O)OC(Cc1c2ccccc2cc2ccccc12)Cc1c2ccccc2cc2ccccc12)Cc1c2ccccc2cc2ccccc12 [X, Penta-anthryl ester] |  | 
15 | 0.05 /0.5 μm | 0.36 /0.5 μm | 160 | very good solubility | O=C(OCc1c2ccccc2cc2ccccc12)C12CC3CC(CC(C3)C1)C2 [XI, 1-adamantyl 9-anthrylmethylate] |  | 
